From ChEMBL document CHEMBL3233011, “Structural modifications of CH(OH)-DAPYs as new HIV-1 non-nucleoside reverse transcriptase inhibitors” (Bioorg Med Chem, 2014)
pEC50, pIC50: −log10 of the molar value.

Experiments:
[1] = test system: Human immunodeficiency virus 1; test: Antiviral activity against HIV1 3B infected in human MT4 cells assessed as inhibition of viral cytopathogenicity after 5 days by MTT assay; assay type: functional, organism-based; details: Human immunodeficiency virus 1, 3B, MT4, 120 h
[2] = test system: Human immunodeficiency virus 1; test: Antiviral activity against HIV1 harboring RT K103N/Y181C double mutant infected in human MT4 cells assessed as inhibition of viral cytopathogenicity after 5 days by MTT assay; assay type: functional, organism-based; details: Human immunodeficiency virus 1, MT4, 120 h
[3] = test system: Human immunodeficiency virus 2; test: Antiviral activity against HIV2 ROD infected in human MT4 cells assessed as inhibition of viral cytopathogenicity after 5 days by MTT assay; assay type: functional, organism-based; details: Human immunodeficiency virus 2, ISOLATE ROD, MT4, 120 h
[4] = Cytotoxicity against mock-infected human MT4 cells after 5 days by MTT assay; assay type: cell-based
[5] = biological target: Human immunodeficiency virus type 1 reverse transcriptase (Human immunodeficiency virus 1, UniProt Q72547); test: Inhibition of wild-type HIV1 reverse transcriptase p66/p51 after 40 mins by spectrophotometry
[6] = test system: Human immunodeficiency virus 1; test: Ratio of nevirapine EC50 to compound EC50 for HIV1 3B infected in human MT4 cells; assay type: functional
[7] = test system: Human immunodeficiency virus 1; test: Ratio of delaviridine EC50 to compound EC50 for HIV1 3B infected in human MT4 cells; assay type: functional

Compound | pEC50 [1] | pEC50 [2] | pEC50 [3] | CC50 at 120 h [4] [µM] | pIC50 [5] | Ratio EC50 [6] | Ratio EC50 [7]
Cc1cnc(Nc2ccc(C#N)cc2)nc1C(C)(O)c1ccc(C(C)(C)C)cc1 (configuration not stated) | 5.14 | < 4.51 | < 4.51 | 31.1 |  |  | 
COc1ccc(C(C)(O)c2ccnc(Nc3ccc(C#N)cc3)n2)cc1 (configuration not stated) | 6.46 | < 4.44 | < 4.44 | 35.9 |  |  | 
Cc1cnc(Nc2ccc(C#N)cc2)nc1C(C)(O)c1ccc(F)cc1 (configuration not stated) | < 4.21 |  | < 4.21 | 61.5 |  |  | 
CC(O)(c1ccccc1)c1ccnc(Nc2ccc(C#N)cc2)n1 (configuration not stated) | 6.54 | < 4.34 | < 4.34 | 45.4 | 5.70 |  | 
CC(O)(c1cccc(Br)c1)c1ccnc(Nc2ccc(C#N)cc2)n1 (configuration not stated) | 6.72 | < 4.47 | < 4.47 | 33.7 | 6.41 |  | 
CC(O)(c1ccnc(Nc2ccc(C#N)cc2)n1)c1cccc2ccccc12 (configuration not stated) | 6.41 | < 4.51 | < 4.51 | 30.7 |  |  | 
CCC(O)(c1ccc(Br)cc1)c1ccnc(Nc2ccc(C#N)cc2)n1 (configuration not stated) | 5.68 | < 4.50 | < 4.50 | 31.3 |  |  | 
Cc1cc(C(C)(O)c2ccc(C(C)(C)C)cc2)nc(Nc2ccc(C#N)cc2)n1 (configuration not stated) | 5.90 | < 4.52 | < 4.52 | 30.4 |  |  | 
CC(C)(C)c1ccc(C(C)(O)c2ccnc(Nc3ccc(C#N)cc3)n2)cc1 (configuration not stated) | 6.25 | < 4.50 | < 4.50 | 31.8 |  |  | 
Cc1ccc(C(C)(O)c2ccnc(Nc3ccc(C#N)cc3)n2)cc1 (configuration not stated) | 7.17 | < 4.40 | < 4.40 | 39.3 | 6.80 | 2 | 2
Cc1cn([C@H]2C[C@H](N=[N+]=[N-])[C@@H](CO)O2)c(=O)[nH]c1=O [ZIDOVUDINE] |  | 8.10 |  | > 93.6 |  |  | 
CC(O)(c1cccc(F)c1)c1ccnc(Nc2ccc(C#N)cc2)n1 (configuration not stated) | 6.70 | < 4.27 | < 4.30 | 53.2 | 6.20 |  | 
Cc1cc(C#N)cc(C)c1Oc1nc(Nc2ccc(C#N)cc2)nc(N)c1Br [ETRAVIRINE] |  |  | < 4.56 |  |  |  | 
CC(O)(c1cccc(Cl)c1)c1ccnc(Nc2ccc(C#N)cc2)n1 (configuration not stated) | 6.59 | < 4.43 | < 4.43 | 37.5 |  |  | 
CC(O)(c1ccc(Br)cc1)c1ccnc(Nc2ccc(C#N)cc2)n1 (configuration not stated) | 6.52 | < 4.55 | < 4.55 | 28.2 |  |  | 
C=CC(O)(c1ccc(Br)cc1)c1ccnc(Nc2ccc(C#N)cc2)n1 (configuration not stated) | 6.45 | < 4.50 | < 4.50 | 31.7 |  |  | 
Cc1ccnc2c1NC(=O)c1cccnc1N2C1CC1 [NEVIRAPINE] |  | 6.05 |  | > 15 |  |  | 
CC(O)(c1ccc(Cl)cc1)c1ccnc(Nc2ccc(C#N)cc2)n1 (configuration not stated) | 6.50 | < 4.41 | < 4.41 | 39 |  |  | 
Cc1cc(C(C)(O)c2ccc(F)cc2)nc(Nc2ccc(C#N)cc2)n1 (configuration not stated) | 5.45 | < 4.42 | < 4.42 | 38.2 |  |  | 
N#Cc1ccc(Nc2nccc(C(O)(c3ccc(Br)cc3)C3CC3)n2)cc1 (configuration not stated) | 5.51 | < 4.48 | < 4.48 | 33.2 |  |  | 
CC(O)(c1ccc(F)cc1)c1ccnc(Nc2ccc(C#N)cc2)n1 (configuration not stated) | 5.60 | < 4.37 | < 4.37 | 43.1 |  |  | 
CC(C)Nc1cccnc1N1CCN(C(=O)c2cc3cc(NS(C)(=O)=O)ccc3[nH]2)CC1 [DELAVIRDINE] | 6.09 | < 4.36 |  | > 43.8 |  |  | 
O=C1Nc2ccc(Cl)cc2[C@@](C#CC2CC2)(C(F)(F)F)O1 [EFAVIRENZ] | 7.66 |  |  | > 6.3 |  |  | 
